Laboratory results as given in paper PMC2844090 (Journal of medicinal chemistry, 2009).

Tests used:
[1] = biological target: T1, human kynurenine aminotransferase I (hKAT I) (Homo sapiens, UniProt Q16773); experiment: co-crystal structure at […] Å; assay type: binding
T1 sequence (Q16773 1-422): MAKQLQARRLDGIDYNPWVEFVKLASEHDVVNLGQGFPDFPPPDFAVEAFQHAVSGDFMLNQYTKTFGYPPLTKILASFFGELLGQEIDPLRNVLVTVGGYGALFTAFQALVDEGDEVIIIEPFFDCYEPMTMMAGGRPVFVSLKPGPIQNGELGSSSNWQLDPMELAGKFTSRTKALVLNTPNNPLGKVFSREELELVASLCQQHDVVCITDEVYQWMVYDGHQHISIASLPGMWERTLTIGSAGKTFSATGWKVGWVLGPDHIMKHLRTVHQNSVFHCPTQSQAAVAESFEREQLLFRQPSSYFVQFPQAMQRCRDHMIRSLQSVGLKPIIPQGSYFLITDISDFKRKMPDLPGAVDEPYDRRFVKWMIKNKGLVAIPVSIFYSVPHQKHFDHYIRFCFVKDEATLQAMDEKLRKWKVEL

[2] = biological target: T1, human kynurenine aminotransferase I (hKAT I); experiment: transamination assay, HPLC of KYNA; assay type: biochemical
[3] = biological target: T1, human kynurenine aminotransferase I (hKAT I); experiment: transamination assay, HPLC of KYNA; assay type: biochemical; remark: listed apart in the source

Row | SMILES | transamination assay, HPLC of KYNA (0.08-10 mM); competing substrate [2] | other results
1 | NC(CO)(CO)CO [Tris] |  | co-crystal structure at 1.50 Å (one of two subunits) [1]: Tris lies near the PLP cofactor and that the Tris amine does not form an external aldimine with PLP
2 | O=C(O)C(=O)Cc1c[nH]c2ccccc12 [indole-3-pyruvic acid] | Figure 6B shows the inhibitions of tryptophan and indole-3-pyruvic acid | 
3 | O=C(O)/C=C/c1c[nH]c2ccccc12 [trans-3-indoleacrylic acid] |  | transamination assay, HPLC of KYNA (0.08-10 mM) [3]: All six of the chemicals strongly inhibited hKAT I
4 | N[C@@H](Cc1c[nH]c2ccccc12)C(=O)O [tryptophan] | Figure 6B shows the inhibitions of tryptophan and indole-3-pyruvic acid | 
